# Measured values reported in paper PMC11189555, “Aryl amino acetamides prevent Plasmodium falciparum ring development via targeting the lipid-transfer protein PfSTART1” (Nature Communications, 2024).
# Where two headings read alike, the source gives them in different places.
# Assays:
# [1] = test system: PopD-D7 M-833 resistant clone (PfSTART1 N309K); assay: Growth inhibition assay (72 h, LDH activity); format: cell-based, Plasmodium falciparum; details: for inhibition at 0.0390625 µM / inhibition at 0.078125 µM / inhibition at 0.15625 µM / inhibition at 0.3125 µM / inhibition at 0.625 µM / inhibition at 1.25 µM / inhibition at 2.5 µM / inhibition at 5 µM / inhibition at 10 µM / EC50: Plasmodium falciparum; for (av-uRBC) / (DMSO-uRBC) x100: PopD-D7
# Description: (§1) The drug was then removed, and parasites were allowed to recover. Another cycle of drug treatment (3 μM M-833) was then resumed. The resistant lines were cloned out by limiting dilution (diluting the culture into a 96-well plate to achieve an average of ~0.3 parasites per well), prior to growth inhibition assays and genomic DNA (gDNA) extraction (DNeasy Blood and Tissue kit (Qiagen)[18].
# (§2) Parasite growth assays with inhibitory compounds were performed as per[11] and are fully described in the Supplementary Information. […]
# (§3) Growth inhibition assays. Synchronised ring-stage parasites (0.3-0.6% parasitemia, 2% haematocrit) were grown for 72 h in a serial-dilution of the compound under […]
# (§4) and compound 4. Note that M-833 was first purchased from MolPort (MolPort -002-267-916) then made in-house at WEHI: the differences observed in EC50s across experiments are attributed to the different batches of M -833. For some experiments, 0, 0.25 or 2.5 mM of glucosamine (GlcN) was also added. Experiments were set up in technical duplicates or triplicates. Following a freeze -thaw cycle, lactate dehydrogenase (LDH) activity was assessed as an indicator of parasite growt h 5. 30 μL of parasite culture was incubated for 30 min in the dark with 75 μL Malstat mixture (0.1 M Tris pH 9.0, 20 g/L lactic acid, pH 7.5, 0.2% Triton-X100, 0.5 g/L acetylpyridine adenine dinucleotide (APAD, Sigma), 200 μg/mL nitroblue tetrazolium (NBT; Sigma), 1 μg/mL phenozine ethosulfate (PES; Sigma)). Absorbance was then measured at 650 nm, transformed using the formula below, plotted against the logarithm of the concentrations, and a non-linear regression (log(inhibitor) vs. response, variable slope) was calculated using GraphPad Prism to assess the half-inhibitory […]
# (§5) Growth inhibition % = (1 − average(sample)− average(uRBC)) ∗ 100 […]
# (§6) The DMSO samples were also used to assess growth of parasite in the presence of 0.25 and 2.5 mM GlcN (normalised by DMSO in 0 mM GlcN). […]
# [2] = test system: PopE-F10 M-833 resistant clone (PfSTART1 N330K); assay: Growth inhibition assay (72 h, LDH activity); format: cell-based, Plasmodium falciparum
# Description: as §1, §2, §3, §4, §5, §6
# [3] = M-833 0.0390625 uM, PopD-D7 replicate 1
# [4] = M-833 0.0390625 uM, PopD-D7 replicate 3
# [5] = M-833 0.078125 uM, PopD-D7 replicate 1
# [6] = M-833 0.078125 uM, PopD-D7 replicate 3
# [7] = M-833 0.15625 uM, PopD-D7 replicate 1
# [8] = M-833 0.15625 uM, PopD-D7 replicate 3
# [9] = M-833 0.3125 uM, PopD-D7 replicate 1
# [10] = M-833 0.3125 uM, PopD-D7 replicate 3
# [11] = M-833 0.625 uM, PopD-D7 replicate 1
# [12] = M-833 0.625 uM, PopD-D7 replicate 3
# [13] = M-833 1.25 uM, PopD-D7 replicate 1
# [14] = M-833 1.25 uM, PopD-D7 replicate 3
# [15] = M-833 2.5 uM, PopD-D7 replicate 1
# [16] = M-833 2.5 uM, PopD-D7 replicate 3
# [17] = M-833 5 uM, PopD-D7 replicate 1
# [18] = M-833 5 uM, PopD-D7 replicate 3
# [19] = M-833 10 uM, PopD-D7 replicate 1
# [20] = M-833 10 uM, PopD-D7 replicate 3
compound,measurement,setting,value
Cc1cc(Cl)c(S(=O)(=O)N2CCCC2)cc1OCC(=O)NC1CCCCC1 [M-833],Normalised to DMSO,[1]; [3],102.734
same,Normalised to DMSO,[1]; [4],100.987
same,Normalised to DMSO,[1]; [5],102.828
same,Normalised to DMSO,[1]; [6],101.481
same,Normalised to DMSO,[1]; [7],103.677
same,Normalised to DMSO,[1]; [8],99.9013
same,Normalised to DMSO,[1]; [9],100.66
same,Normalised to DMSO,[1]; [10],100.592
same,Normalised to DMSO,[1]; [11],98.7744
same,Normalised to DMSO,[1]; [12],98.815
same,Normalised to DMSO,[1]; [13],99.0572
same,Normalised to DMSO,[1]; [14],95.26
same,Normalised to DMSO,[1]; [15],95.8517
same,Normalised to DMSO,[1]; [16],89.6313
same,Normalised to DMSO,[1]; [17],85.4808
same,Normalised to DMSO,[1]; [18],79.5589
same,Normalised to DMSO,[1]; [19],58.4224
same,Normalised to DMSO,[1]; [20],50.0329
same,inhibition at 0.0390625 µM,[1]; [3],-2.73%
same,inhibition at 0.0390625 µM,[1]; [4],-0.987%
same,inhibition at 0.078125 µM,[1]; [5],-2.83%
same,inhibition at 0.078125 µM,[1]; [6],-1.48%
same,inhibition at 0.15625 µM,[1]; [7],-3.68%
same,inhibition at 0.15625 µM,[1]; [8],0.0987%
same,inhibition at 0.3125 µM,[1]; [9],-0.66%
same,inhibition at 0.3125 µM,[1]; [10],-0.592%
same,inhibition at 0.625 µM,[1]; [11],1.23%
same,inhibition at 0.625 µM,[1]; [12],1.18%
same,inhibition at 1.25 µM,[1]; [13],0.943%
same,inhibition at 1.25 µM,[1]; [14],4.74%
same,inhibition at 2.5 µM,[1]; [15],4.15%
same,inhibition at 2.5 µM,[1]; [16],10.4%
same,inhibition at 5 µM,[1]; [17],14.5%
same,inhibition at 5 µM,[1]; [18],20.4%
same,inhibition at 10 µM,[1]; [19],41.6%
same,inhibition at 10 µM,[1]; [20],50%
same,EC50,[1]; read-out: EC50 (95% confidence interval),9.95 µM
same,EC50,"[1]; Supplementary Table 1, PopD-D7 (N309K), 72 h, read-out: EC50",4.88 µM
same,(av-uRBC) / (DMSO-uRBC) x100,"[1]; conc. 3.04832 nM, Biological replicate 1 (2021-10-25)",106.031
same,(av-uRBC) / (DMSO-uRBC) x100,"[1]; conc. 3.04832 nM, Biological replicate 2 (2021-11-03)",107.379
same,(av-uRBC) / (DMSO-uRBC) x100,"[1]; conc. 3.04832 nM, Biological replicate 3 (2021-11-11)",132.053
same,(av-uRBC) / (DMSO-uRBC) x100,"[1]; conc. 9.14495 nM, Biological replicate 1 (2021-10-25)",108.232
same,(av-uRBC) / (DMSO-uRBC) x100,"[1]; conc. 9.14495 nM, Biological replicate 2 (2021-11-03)",108.229
same,(av-uRBC) / (DMSO-uRBC) x100,"[1]; conc. 9.14495 nM, Biological replicate 3 (2021-11-11)",134.103
same,(av-uRBC) / (DMSO-uRBC) x100,"[1]; conc. 27.4348 nM, Biological replicate 1 (2021-10-25)",109.088
same,(av-uRBC) / (DMSO-uRBC) x100,"[1]; conc. 27.4348 nM, Biological replicate 2 (2021-11-03)",108.743
same,(av-uRBC) / (DMSO-uRBC) x100,"[1]; conc. 27.4348 nM, Biological replicate 3 (2021-11-11)",131.145
same,(av-uRBC) / (DMSO-uRBC) x100,"[1]; conc. 82.3045 nM, Biological replicate 1 (2021-10-25)",105.921
same,(av-uRBC) / (DMSO-uRBC) x100,"[1]; conc. 82.3045 nM, Biological replicate 2 (2021-11-03)",106.368
same,(av-uRBC) / (DMSO-uRBC) x100,"[1]; conc. 82.3045 nM, Biological replicate 3 (2021-11-11)",120.919
same,(av-uRBC) / (DMSO-uRBC) x100,"[1]; conc. 246.914 nM, Biological replicate 1 (2021-10-25)",104.521
same,(av-uRBC) / (DMSO-uRBC) x100,"[1]; conc. 246.914 nM, Biological replicate 2 (2021-11-03)",107.825
same,(av-uRBC) / (DMSO-uRBC) x100,"[1]; conc. 246.914 nM, Biological replicate 3 (2021-11-11)",115.806
same,(av-uRBC) / (DMSO-uRBC) x100,"[1]; conc. 740.741 nM, Biological replicate 1 (2021-10-25)",96.6483
same,(av-uRBC) / (DMSO-uRBC) x100,"[1]; conc. 740.741 nM, Biological replicate 2 (2021-11-03)",106.073
same,(av-uRBC) / (DMSO-uRBC) x100,"[1]; conc. 740.741 nM, Biological replicate 3 (2021-11-11)",111.809
same,(av-uRBC) / (DMSO-uRBC) x100,"[1]; conc. 2222.22 nM, Biological replicate 1 (2021-10-25)",83.9595
same,(av-uRBC) / (DMSO-uRBC) x100,"[1]; conc. 2222.22 nM, Biological replicate 2 (2021-11-03)",95.9821
same,(av-uRBC) / (DMSO-uRBC) x100,"[1]; conc. 2222.22 nM, Biological replicate 3 (2021-11-11)",68.0249
same,(av-uRBC) / (DMSO-uRBC) x100,"[1]; conc. 6666.67 nM, Biological replicate 1 (2021-10-25)",42.8085
same,(av-uRBC) / (DMSO-uRBC) x100,"[1]; conc. 6666.67 nM, Biological replicate 2 (2021-11-03)",58.8022
same,(av-uRBC) / (DMSO-uRBC) x100,"[1]; conc. 6666.67 nM, Biological replicate 3 (2021-11-11)",17.0257
same,(av-uRBC) / (DMSO-uRBC) x100,"[1]; conc. 20000 nM, Biological replicate 1 (2021-10-25)",9.309
same,(av-uRBC) / (DMSO-uRBC) x100,"[1]; conc. 20000 nM, Biological replicate 2 (2021-11-03)",11.2449
same,(av-uRBC) / (DMSO-uRBC) x100,"[1]; conc. 20000 nM, Biological replicate 3 (2021-11-11)",4.179
same,Normalised to DMSO,"[1]; PopD-D7 replicate 1, M-833 0.0390625 uM",0.8625
same,Normalised to DMSO,"[1]; PopD-D7 replicate 1, M-833 0.078125 uM",-4.169
same,Normalised to DMSO,"[1]; PopD-D7 replicate 1, M-833 0.15625 uM",-1.581
same,Normalised to DMSO,"[1]; PopD-D7 replicate 1, M-833 0.3125 uM",-1.15
same,Normalised to DMSO,"[1]; PopD-D7 replicate 1, M-833 0.625 uM",-0.1437
same,Normalised to DMSO,"[1]; PopD-D7 replicate 1, M-833 1.25 uM",-3.594
same,Normalised to DMSO,"[1]; PopD-D7 replicate 1, M-833 2.5 uM",7.619
same,Normalised to DMSO,"[1]; PopD-D7 replicate 1, M-833 5 uM",28.7494
same,Fold change compared to 3D7,"[1]; Supplementary Table 1, EC50 on PopD-D7 vs 3D7",31 fold
same,Normalised to DMSO,"[2]; M-833 0.0390625 uM, Pop E-F10 replicate 1",109.097
same,Normalised to DMSO,"[2]; M-833 0.0390625 uM, Pop E-F10 replicate 3",103.799
same,Normalised to DMSO,"[2]; M-833 0.078125 uM, Pop E-F10 replicate 1",108.039
same,Normalised to DMSO,"[2]; M-833 0.078125 uM, Pop E-F10 replicate 3",104.854
same,Normalised to DMSO,"[2]; M-833 0.15625 uM, Pop E-F10 replicate 1",116.502
